The NIST ThermoML archive (doi:10.1016/j.tca.2016.06.014)
Where “and” joins values, the source holds several entries; their conditions need not be identical. Identical values can stand only once. ± gives the expanded uncertainty stated by the source.

Legend:
[1] = for vapor or sublimation pressure: Transpiration method; for Triple point temperature: DSC; for Normal melting temperature: DTA
[2] = Molar enthalpy of transition or fusion; conditions: DSC

SMILES: BrC12CC3CC(CC(C3)C1)C2 [1-bromotricyclo[3.3.1.1(3,7)]decane]
- vapor or sublimation pressure ([1]; 298.2 K, Crystal 2): 0.00419 ± 0.00028 kPa
- vapor or sublimation pressure ([1]; 303.2 K, Crystal 2): 0.00677 ± 0.00043 kPa
- vapor or sublimation pressure ([1]; 313.2 K, Crystal 1): 0.0166 ± 0.0011 kPa
- vapor or sublimation pressure ([1]; 317.3 K, Crystal 1): 0.02262 ± 0.0014 kPa
- vapor or sublimation pressure ([1]; 320.2 K, Crystal 1): 0.02932 ± 0.0019 kPa
- vapor or sublimation pressure ([1]; 323.2 K, Crystal 1): 0.03504 ± 0.0022 kPa
- vapor or sublimation pressure ([1]; 325.7 K, Crystal 1): 0.04244 ± 0.0027 kPa
- vapor or sublimation pressure ([1]; 328.2 K, Crystal 1): 0.04954 ± 0.0031 kPa
- vapor or sublimation pressure ([1]; 333.1 K, Crystal 1): 0.06913 ± 0.0043 kPa
- vapor or sublimation pressure ([1]; 337.1 K, Crystal 1): 0.08922 ± 0.0056 kPa
- Triple point temperature ([1]; Crystal 1): 390.9 ± 1.2 K
- Triple point temperature ([1]; Crystal 2): 311.6 ± 1.2 K
- Molar enthalpy of transition or fusion ([2]; Crystal 1): 1.15 ± 0.239 kcal/mol
- Molar enthalpy of transition or fusion ([2]; Crystal 2): 1.77 ± 0.239 kcal/mol

SMILES: ClC12CC3CC(CC(C3)C1)C2 [1-chlorotricyclo[3.3.1.1(3,7)]decane]
- vapor or sublimation pressure ([1]; 298.5 K, Crystal): 0.01172 ± 0.00075 kPa
- vapor or sublimation pressure ([1]; 301 K, Crystal): 0.01402 ± 0.00097 kPa
- vapor or sublimation pressure ([1]; 303.2 K, Crystal): 0.01766 ± 0.0011 kPa
- vapor or sublimation pressure ([1]; 303.4 K, Crystal): 0.01712 ± 0.001 kPa
- vapor or sublimation pressure ([1]; 306.3 K, Crystal): 0.02255 ± 0.0015 kPa
- vapor or sublimation pressure ([1]; 308.3 K, Crystal): 0.02567 ± 0.0016 kPa
- vapor or sublimation pressure ([1]; 308.4 K, Crystal): 0.02653 ± 0.0017 kPa
- vapor or sublimation pressure ([1]; 311.4 K, Crystal): 0.03389 ± 0.0022 kPa
- vapor or sublimation pressure ([1]; 313.3 K, Crystal): 0.0365 ± 0.0023 kPa
- vapor or sublimation pressure ([1]; 316.2 K, Crystal): 0.04719 ± 0.003 kPa
- vapor or sublimation pressure ([1]; 318.2 K, Crystal): 0.05137 ± 0.0033 kPa and 0.05598 ± 0.0036 kPa
- vapor or sublimation pressure ([1]; 323.2 K, Crystal): 0.07923 ± 0.005 kPa
- vapor or sublimation pressure ([1]; 323.3 K, Crystal): 0.0762 ± 0.0048 kPa
- vapor or sublimation pressure ([1]; 326.2 K, Crystal): 0.09623 ± 0.006 kPa
- vapor or sublimation pressure ([1]; 328.2 K, Crystal): 0.1033 ± 0.0064 kPa and 0.11 ± 0.0069 kPa
- vapor or sublimation pressure ([1]; 330.7 K, Crystal): 0.1198 ± 0.0075 kPa
- vapor or sublimation pressure ([1]; 333.2 K, Crystal): 0.1492 ± 0.0094 kPa
- vapor or sublimation pressure ([1]; 333.4 K, Crystal): 0.1437 ± 0.009 kPa
- Normal melting temperature ([1]; Crystal): 165.8 ± 1.1 °C
- Molar enthalpy of transition or fusion ([2]; Crystal): 1.24 ± 0.239 kcal/mol

SMILES: BrC1C2CC3CC(C2)CC1C3 (stereo unspecified) [2-bromoadamantane]
- vapor or sublimation pressure ([1]; 298.5 K, Crystal): 0.00329 ± 0.00025 kPa
- vapor or sublimation pressure ([1]; 300.9 K, Crystal): 0.0039 ± 0.00028 kPa
- vapor or sublimation pressure ([1]; 303.4 K, Crystal): 0.00475 ± 0.00034 kPa
- vapor or sublimation pressure ([1]; 308.4 K, Crystal): 0.00703 ± 0.00045 kPa
- vapor or sublimation pressure ([1]; 313.3 K, Crystal): 0.01089 ± 0.0007 kPa
- vapor or sublimation pressure ([1]; 318.2 K, Crystal): 0.01506 ± 0.00096 kPa
- vapor or sublimation pressure ([1]; 323.2 K, Crystal): 0.02279 ± 0.0014 kPa
- vapor or sublimation pressure ([1]; 328.2 K, Crystal): 0.03107 ± 0.002 kPa
- vapor or sublimation pressure ([1]; 333.2 K, Crystal): 0.04422 ± 0.0028 kPa
- vapor or sublimation pressure ([1]; 338.2 K, Crystal): 0.06437 ± 0.004 kPa
- vapor or sublimation pressure ([1]; 340.1 K, Crystal): 0.07403 ± 0.0046 kPa
- vapor or sublimation pressure ([1]; 343.1 K, Crystal): 0.08635 ± 0.0053 kPa
- Normal melting temperature ([1]; Crystal): 141.6 ± 1.1 °C
- Molar enthalpy of transition or fusion ([2]; Crystal): 1 ± 0.239 kcal/mol

SMILES: ClC1C2CC3CC(C2)CC1C3 (stereo unspecified) [2-chlorotricyclo[3.3.1.1(3,7)]decane]
- vapor or sublimation pressure ([1]; 298.6 K, Crystal): 0.00623 ± 0.00047 kPa
- vapor or sublimation pressure ([1]; 301.6 K, Crystal): 0.0076 ± 0.00049 kPa
- vapor or sublimation pressure ([1]; 303.5 K, Crystal): 0.00901 ± 0.00054 kPa
- vapor or sublimation pressure ([1]; 308.4 K, Crystal): 0.01307 ± 0.00078 kPa
- vapor or sublimation pressure ([1]; 310.3 K, Crystal): 0.01568 ± 0.001 kPa
- vapor or sublimation pressure ([1]; 313.3 K, Crystal): 0.0191 ± 0.0012 kPa
- vapor or sublimation pressure ([1]; 313.5 K, Crystal): 0.01927 ± 0.0012 kPa and 0.01999 ± 0.0013 kPa and 0.01925 ± 0.0012 kPa
- vapor or sublimation pressure ([1]; 315.3 K, Crystal): 0.0223 ± 0.0015 kPa
- vapor or sublimation pressure ([1]; 318.2 K, Crystal): 0.02668 ± 0.0017 kPa
- vapor or sublimation pressure ([1]; 323.5 K, Crystal): 0.03885 ± 0.0025 kPa
- vapor or sublimation pressure ([1]; 328.2 K, Crystal): 0.05574 ± 0.0035 kPa
- vapor or sublimation pressure ([1]; 333.2 K, Crystal): 0.07877 ± 0.005 kPa
- vapor or sublimation pressure ([1]; 335.7 K, Crystal): 0.08972 ± 0.0055 kPa
- vapor or sublimation pressure ([1]; 338.2 K, Crystal): 0.106 ± 0.0067 kPa
- Normal melting temperature ([1]; Crystal): 195.0 ± 1.1 °C
- Molar enthalpy of transition or fusion ([2]; Crystal): 1.51 ± 0.239 kcal/mol

SMILES: BrC1CCCCC1 [bromocyclohexane]
- vapor or sublimation pressure ([1]; 277.5 K, Liquid): 0.105 ± 0.0066 kPa
- vapor or sublimation pressure ([1]; 280 K, Liquid): 0.1251 ± 0.0078 kPa
- vapor or sublimation pressure ([1]; 281.7 K, Liquid): 0.1422 ± 0.009 kPa
- vapor or sublimation pressure ([1]; 283.6 K, Liquid): 0.1639 ± 0.01 kPa
- vapor or sublimation pressure ([1]; 285.5 K, Liquid): 0.1872 ± 0.012 kPa
- vapor or sublimation pressure ([1]; 287.4 K, Liquid): 0.21 ± 0.013 kPa
- vapor or sublimation pressure ([1]; 288.8 K, Liquid): 0.2298 ± 0.015 kPa
- vapor or sublimation pressure ([1]; 289.3 K, Liquid): 0.2446 ± 0.015 kPa
- vapor or sublimation pressure ([1]; 291.3 K, Liquid): 0.2704 ± 0.017 kPa
- vapor or sublimation pressure ([1]; 293.2 K, Liquid): 0.3182 ± 0.02 kPa
- vapor or sublimation pressure ([1]; 295.3 K, Liquid): 0.3668 ± 0.023 kPa
- vapor or sublimation pressure ([1]; 297.3 K, Liquid): 0.4161 ± 0.026 kPa
